Results on 3 molecules are retold here after US10799561B2, “Method for increasing cardiac inflow by administering a compound that binds RXFP1” (Relaxera Pharmazeutische Gesellschaft GmbH & Co. KG, priority 2014, dated 2020).

Entries after “also recorded” stand apart in the source; their conditions may differ. Ends that are not written are not given here.

The test system of experiment [1] is patients with heart failure. The conditions noted are these: intravenous infusion, hemodynamic monitoring; cited from earlier work.
For experiment [2], the target named is T1, RXFP1 (Homo sapiens, UniProt Q9HBX9).
T1 construct: expressed in transfected cells; host or cells: HEK-293T cells stably transfected with RXFP1
T1 sequence (Q9HBX9 1-757): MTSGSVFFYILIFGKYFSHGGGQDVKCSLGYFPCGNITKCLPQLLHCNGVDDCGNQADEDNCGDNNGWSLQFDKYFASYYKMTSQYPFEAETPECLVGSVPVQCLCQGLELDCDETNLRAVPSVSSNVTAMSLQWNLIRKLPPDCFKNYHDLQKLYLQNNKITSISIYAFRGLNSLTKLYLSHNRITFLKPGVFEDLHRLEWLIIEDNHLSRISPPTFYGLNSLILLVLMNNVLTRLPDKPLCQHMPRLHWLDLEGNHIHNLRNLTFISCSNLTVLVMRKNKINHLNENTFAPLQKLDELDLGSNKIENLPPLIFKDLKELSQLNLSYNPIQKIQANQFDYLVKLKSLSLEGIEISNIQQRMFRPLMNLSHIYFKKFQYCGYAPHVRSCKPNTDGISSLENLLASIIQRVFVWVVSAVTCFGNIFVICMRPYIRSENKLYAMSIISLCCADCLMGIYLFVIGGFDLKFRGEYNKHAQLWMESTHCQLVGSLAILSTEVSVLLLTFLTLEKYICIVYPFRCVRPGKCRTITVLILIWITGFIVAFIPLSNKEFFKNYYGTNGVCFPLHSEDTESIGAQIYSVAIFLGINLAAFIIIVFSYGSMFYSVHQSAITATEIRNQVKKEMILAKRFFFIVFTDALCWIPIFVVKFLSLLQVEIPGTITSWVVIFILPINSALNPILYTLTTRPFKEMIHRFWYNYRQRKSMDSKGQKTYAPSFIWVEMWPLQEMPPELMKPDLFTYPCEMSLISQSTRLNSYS
Kind of experiment: cAMP reporter gene assay in HEK-293T cells stably expressing RXFP1. The conditions noted are these: in words. It is filed as cell-based. As to the method: Stimulation of the RXFP1 receptor results in the activation of adenylate cyclase and therefore in an increase in cAMP. […] Each concentration point was performed in triplicate and peptides were tested in at least three independent experiments. Data were analyzed with GraphPad Prism 4.0 (GraphPad Software, San Diego, Calif., USA), and a nonlinear regression sigmoidal dose-response (variable slope) model was used to plot curves and calculate pEC50 values.
Background: In a reporter assay the amount or activity of a reporter protein is the signal.

Experiment [3] has as its system mice with diastolic heart failure and controls. Kind of experiment: subcutaneous infusion of relaxin in mice with diastolic dysfunction. The class given is in vivo. As to the method: The present inventors have therefore used an animal model for testing the treatment for DHF and of a stiffened heart muscle having insufficient relaxation and distensibility. The table below summarizes data obtained in mice with a type of diastolic heart failure as compared with controls. The subcutaneous infusion of isolated porcine relaxin over 12 weeks in mice (50 μg porcine relaxin/kg/d) decreased end-diastolic pressure and, consequently, improved E/A ratio, a functional parameter indicating the quality of ventricular filling. The subcutaneous infusion of relaxin was obtained by implanting in the neck portion of the mice a membrane capsule releasing continuously porcine relaxin.

Where [4] appears, read: control mice, 50 μg/kg/d s.c. infusion, 12 weeks, mean ± SEM.
[5] abbreviates: mice with diastolic dysfunction, 50 μg/kg/d s.c. infusion, 12 weeks, mean ± SEM.

On to recombinant human relaxin-2 [rhRlx], for which, in experiment [1], the cardiac index entry is listed as “trends toward increases” and the pulmonary wedge pressure entry was “decreases”.
In the case of `CC[C@H](C)[C@@H]1NC(=O)[C@H](C)NC(=O)[C@H]([C@@H](C)CC)NC(=O)[C@H](CCC(N)=O)NC(=O)[C@H](C)NC(=O)[C@H](CCCNC(=N)N)NC(=O)[C@H](C(C)C)NC(=O)[C@H](CC(C)C)NC(=O)[C@H](CCC(=O)O)NC(=O)[C@H](CCCNC(=N)N)NC(=O)CNC(=O)[C@@H](NC(=O)[C@H](CC(C)C)NC(=O)[C@H](CCCCN)NC(=O)[C@@H](NC(=O)[C@@H](NC(=O)[C@H](CCC(=O)O)NC(=O)[C@H](CCC(=O)O)NC(=O)[C@H](CCSC)NC(=O)[C@H](Cc2c[nH]c3ccccc23)NC(=O)[C@@H](N)CO)C(C)C)[C@@H](C)CC)CSSC[C@@H]2NC(=O)[C@@H](NC(=O)[C@H](CCCCN)NC(=O)[C@H](CC(N)=O)NC(=O)[C@H](C)NC(=O)[C@H](CC(C)C)NC(=O)[C@H](C)NC(=O)[C@H](CO)NC(=O)[C@H](Cc3ccc(O)cc3)NC(=O)[C@H](CC(C)C)NC(=O)[C@@H]3CCC(=O)N3)CSSC[C@H](NC(=O)CNC(=O)[C@H](C(C)C)NC(=O)[C@H](Cc3c[nH]cn3)NC2=O)C(=O)N[C@@H]([C@@H](C)O)C(=O)N[C@@H](CCCCN)C(=O)N[C@@H](CCCNC(=N)N)C(=O)N[C@@H](CO)C(=O)N[C@@H](CC(C)C)C(=O)N[C@@H](C)C(=O)N[C@@H](CCCNC(=N)N)C(=O)N[C@@H](Cc2ccccc2)C(=O)N[C@H](C(=O)O)CSSC[C@@H](C(=O)NCC(=O)N[C@@H](CCSC)C(=O)N[C@@H](CO)C(=O)N[C@H](C(=O)N[C@@H](Cc2c[nH]c3ccccc23)C(=O)N[C@@H](CO)C(=O)O)[C@@H](C)O)NC1=O` [-Asp-shRlx], in experiment [2], the “biological activity of the by-product” value is “biologically fully active”.
With “porcine relaxin (Relaxin B chain QSTNDFIKACGRELVRLWVEICGSVSWGRTAL; Relaxin A chain RMTLSEKCCQVGCIRKDIARLC; not fully specified; ends and bridges not checked; UniProt P01348 25-56; P01348 161-182, looked up) [isolated porcine relaxin, released continuously from an implanted membrane capsule]”, the E/A ratio is 2.4 ± 0.2 in experiment [3] (setting [4]); “improved; also recorded: dramatically shifted back to the normal range” in experiment [3] (mice with diastolic dysfunction, 50 μg/kg/d s.c. over 12 weeks, in words); 2.0 ± 0.2 in experiment [3] (setting [5]). Further, the “LVEDP, left ventricular end-diastolic pressure” value is given as 5.2 ± 0.5 mm Hg in experiment [3] (setting [4]) and 7.0 ± 0.6 mm Hg in experiment [3] (setting [5]). The results for the “LVSP, left ventricular systolic pressure” value in experiment [3] (setting [4]) and in experiment [3] (setting [5]) were 109 ± 10 mm Hg and 111 ± 12 mm Hg, respectively. In experiment [3] (control mice, in words), the “effect on heart function in controls” value is recorded as “no pharmaceutical effects were noted”. For the same molecule, the end-diastolic pressure entry in experiment [3] (mice, 50 μg/kg/d s.c. over 12 weeks, in words) is on record as “decreased”.
